Target: T1, F508del (Homo sapiens, UniProt P13569, DEL508-508)
T1 construct: expressed in transfected cells
Assay: Protocol 1: membrane potential optical assay (FLIPR III, voltage sensing dye), identification of potentiator compounds
Format: cell-based
Conditions: Table 3, compounds of Table 1
How it was run: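 Membrane potential in forskolin-activated, temperature-rescued F508del NIH 3T3 cells is followed with a voltage-sensing dye on FLIPR III. A chloride ion gradient created at the single addition step provides the driving force, after prior compound treatment.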

T1 sequence (P13569 with tags, fused parts or gaps DEL508-508): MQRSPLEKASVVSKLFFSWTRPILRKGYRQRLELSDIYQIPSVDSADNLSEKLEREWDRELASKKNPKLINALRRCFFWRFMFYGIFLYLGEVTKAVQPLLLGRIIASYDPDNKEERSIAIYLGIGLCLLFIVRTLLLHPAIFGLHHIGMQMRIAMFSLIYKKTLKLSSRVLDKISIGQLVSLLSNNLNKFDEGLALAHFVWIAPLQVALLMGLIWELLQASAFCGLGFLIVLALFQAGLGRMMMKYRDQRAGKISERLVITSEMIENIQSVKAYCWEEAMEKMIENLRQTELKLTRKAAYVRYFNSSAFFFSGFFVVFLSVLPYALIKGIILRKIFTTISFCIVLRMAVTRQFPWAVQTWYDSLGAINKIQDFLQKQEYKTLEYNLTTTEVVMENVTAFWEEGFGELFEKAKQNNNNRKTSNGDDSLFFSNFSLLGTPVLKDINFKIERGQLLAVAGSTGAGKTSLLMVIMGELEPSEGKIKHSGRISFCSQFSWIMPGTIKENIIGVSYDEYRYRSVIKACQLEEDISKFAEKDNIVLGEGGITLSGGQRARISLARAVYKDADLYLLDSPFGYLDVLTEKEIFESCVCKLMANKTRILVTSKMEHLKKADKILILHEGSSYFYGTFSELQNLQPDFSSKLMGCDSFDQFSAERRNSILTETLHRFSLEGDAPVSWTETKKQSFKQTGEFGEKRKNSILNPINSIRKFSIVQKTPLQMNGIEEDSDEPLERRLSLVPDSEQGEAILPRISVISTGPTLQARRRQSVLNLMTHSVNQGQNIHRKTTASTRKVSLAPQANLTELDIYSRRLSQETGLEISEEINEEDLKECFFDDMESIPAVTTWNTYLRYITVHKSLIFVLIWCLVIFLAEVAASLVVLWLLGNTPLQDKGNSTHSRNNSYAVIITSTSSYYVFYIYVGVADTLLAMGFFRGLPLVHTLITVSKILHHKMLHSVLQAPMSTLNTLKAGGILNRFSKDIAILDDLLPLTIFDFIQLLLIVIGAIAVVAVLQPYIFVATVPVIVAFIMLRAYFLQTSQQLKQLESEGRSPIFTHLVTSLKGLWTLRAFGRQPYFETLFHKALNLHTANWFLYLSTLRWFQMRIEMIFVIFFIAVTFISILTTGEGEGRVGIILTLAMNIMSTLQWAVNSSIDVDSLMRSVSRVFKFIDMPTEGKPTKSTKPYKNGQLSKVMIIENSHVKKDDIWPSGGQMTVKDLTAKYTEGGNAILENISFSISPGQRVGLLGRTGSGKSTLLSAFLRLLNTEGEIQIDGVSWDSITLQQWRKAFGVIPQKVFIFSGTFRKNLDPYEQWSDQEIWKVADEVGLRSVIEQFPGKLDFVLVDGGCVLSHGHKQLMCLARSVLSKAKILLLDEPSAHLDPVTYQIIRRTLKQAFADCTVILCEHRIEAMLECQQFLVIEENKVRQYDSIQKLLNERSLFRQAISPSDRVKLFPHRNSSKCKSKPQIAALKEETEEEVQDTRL

Row | Compound | EC30
1 | C[C@@H]1CN(c2nc(-c3ccc(OC(F)(F)F)cc3)ccc2C(=O)NS(=O)(=O)N2CC[C@H](N)C2)C(C)(C)C1 [Compound 1763, N-[(3S)-3-aminopyrrolidin-1-yl]sulfonyl-6-[4-(trifluoromethoxy)phenyl]-2-[(4S)-2,2,4-trimethylpyrrolidin-1-yl]pyridine-3-carboxamide] | +++ (“+++” means <3 uM)
2 | CC1CN(c2ncccc2C(=O)NS(=O)(=O)c2cccc(OCC3CCCO3)n2)C(C)(C)C1 (stereo not shown) [Compound 1764, N—[[6-(tetrahydrofuran-2-ylmethoxy)-2-pyridyl]sulfonyl]-2-(2,2,4-trimethylpyrrolidin-1-yl)pyridine-3-carboxamide] | ++ (“++” means between 3 uM and 10 uM)
3 | CC1CN(c2ncccc2C(=O)NS(=O)(=O)c2cccc(OCC3CCCCC3)n2)C(C)(C)C1 (stereo not shown) [Compound 1767, N—[[6-(cyclohexylmethoxy)-2-pyridyl]sulfonyl]-2-(2,2,4-trimethylpyrrolidin-1-yl)pyridine-3-carboxamide] | +++ (“+++” means <3 uM)
4 | CCOc1cc(C)cc(-c2ccc(C(=O)NS(=O)(=O)c3ccc[nH]c3=O)c(Oc3c(C)cc(C)cc3C)n2)n1 [Compound 1768, 6-(6-ethoxy-4-methyl-2-pyridyl)-N-[(2-oxo-1H-pyridin-3-yl)sulfonyl]-2-(2,4,6-trimethylphenoxy)pyridine-3-carboxamide] | ++ (“++” means between 3 uM and 10 uM)
5 | CC(Nc1ncccc1C(=O)NS(=O)(=O)c1cccc(N)n1)c1cccc2ccccc12 (stereo not shown) [Compound 1769, N-[(6-amino-2-pyridyl)sulfonyl]-2-[1-(1-naphthyl)ethylamino]pyridine-3-carboxamide] | ++ (“++” means between 3 uM and 10 uM)
6 | Cc1ccccc1C1CCCCCN1c1ncccc1C(=O)NS(=O)(=O)c1cccc(N)n1 (stereo not shown) [Compound 1772, N-[(6-amino-2-pyridyl)sulfonyl]-2-[2-(o-tolyl)azepan-1-yl]pyridine-3-carboxamide] | ++ (“++” means between 3 uM and 10 uM)
7 | CC1CN(c2ncccc2C(=O)NS(=O)(=O)c2cccc(N3CCN(C(=O)OC(C)(C)C)CC3)n2)C(C)(C)C1 (stereo not shown) [Compound 1773, tert-butyl 4-[6-[[2-(2,2,4-trimethylpyrrolidin-1-yl)pyridine-3-carbonyl]sulfamoyl]-2-pyridyl]piperazine-1-carboxylate] | +++ (“+++” means <3 uM)
8 | CC1CN(c2ncccc2C(=O)NS(=O)(=O)c2cccc(N3CCCC4CCCCC43)n2)C(C)(C)C1 (stereo not shown) [Compound 1776, N—[[6-(3,4,4a,5,6,7,8,8a-octahydro-2H-quinolin-1-yl)-2-pyridyl]sulfonyl]-2-(2,2,4-trimethylpyrrolidin-1-yl)pyridine-3-carboxamide] | +++ (“+++” means <3 uM)
9 | CCOCCOCCOc1ncc(-c2ccc(C(=O)NS(=O)(=O)c3cccnc3N)c(N3C[C@@H](C)CC3(C)C)n2)cc1C [Compound 1783, N-[(2-amino-3-pyridyl)sulfonyl]-6-[6-[2-(2-ethoxyethoxy)ethoxy]-5-methyl-3-pyridyl]-2-[(4S)-2,2,4-trimethylpyrrolidin-1-yl]pyridine-3-carboxamide] | +++ (“+++” means <3 uM)
10 | Cc1cc(-c2ccc(C(=O)NS(=O)(=O)c3cccc(N)n3)c(N3C[C@@H](C)CC3(C)C)n2)cnc1OCCOCCOCCOC(C)C [Compound 1787, N-[(6-amino-2-pyridyl)sulfonyl]-6-[6-[2-[2-(2-isopropoxyethoxy)ethoxy]ethoxy]-5-methyl-3-pyridyl]-2-[(4S)-2,2,4-trimethylpyrrolidin-1-yl]pyridine-3-carboxamide] | ++ (“++” means between 3 uM and 10 uM)
11 | CC(C)COc1cc(F)cc(-c2ccc(C(=O)NS(=O)(=O)c3cccc(N)n3)c(N3CC(C(F)(F)F)CC3(C)C)n2)c1 (stereo not shown) [Compound 1788, N-[(6-amino-2-pyridyl)sulfonyl]-2-[2,2-dimethyl-4-(trifluoromethyl)pyrrolidin-1-yl]-6-(3-fluoro-5-isobutoxy-phenyl)pyridine-3-carboxamide] | +++ (“+++” means <3 uM)
12 | CC(C)COc1cc(F)cc(-c2ccc(C(=O)NS(=O)(=O)N3CC4C[C@H]3CO4)c(N3C[C@@H](C)CC3(C)C)n2)c1 [Compound 1789, 6-(3-fluoro-5-isobutoxy-phenyl)-N—[[(4S)-2-oxa-5-azabicyclo[2.2.1]heptan-5-yl]sulfonyl]-2-[(4S)-2,2,4-trimethylpyrrolidin-1-yl]pyridine-3-carboxamide] | +++ (“+++” means <3 uM)

Other lines, results leading:

Row | EC30 | Compound
13 | ++ (“++” means between 3 uM and 10 uM) | COc1ccc(Oc2cccc(S(=O)(=O)NC(=O)c3cccnc3N3CC(C)CC3(C)C)n2)cc1OC (stereo not shown) [Compound 1761, N—[[6-(3,4-dimethoxyphenoxy)-2-pyridyl]sulfonyl]-2-(2,2,4-trimethylpyrrolidin-1-yl)pyridine-3-carboxamide]
14 | +++ (“+++” means <3 uM) | C[C@@H]1CN(c2nc(C(C)(C)C)ccc2C(=O)NS(=O)(=O)c2ccc[nH]c2=O)C(C)(C)C1 [Compound 1765, 6-tert-butyl-N-[(2-oxo-1H-pyridin-3-yl)sulfonyl]-2-[(4S)-2,2,4-trimethylpyrrolidin-1-yl]pyridine-3-carboxamide]
15 | +++ (“+++” means <3 uM) | Cc1ccccc1-c1ccc(C(=O)NS(=O)(=O)c2cccnc2N)c(N2C[C@@H](C)CC2(C)C)n1 [Compound 1766, N-[(2-amino-3-pyridyl)sulfonyl]-6-(o-tolyl)-2-[(4S)-2,2,4-trimethylpyrrolidin-1-yl]pyridine-3-carboxamide]
16 | +++ (“+++” means <3 uM) | CC1CN(c2ncccc2C(=O)NS(=O)(=O)c2cccc(NCc3cc(F)ccc3F)n2)C(C)(C)C1 (stereo not shown) [Compound 1770, N—[[6-[(2,5-difluorophenyl)methylamino]-2-pyridyl]sulfonyl]-2-(2,2,4-trimethylpyrrolidin-1-yl)pyridine-3-carboxamide]
17 | +++ (“+++” means <3 uM) | Cc1cc(C)cc(-c2ccc(C(=O)NS(=O)(=O)c3cccc(N)n3)c(N3C[C@@H](C)CC3(C)C)n2)c1 [Compound 1771, N-[(6-amino-2-pyridyl)sulfonyl]-6-(3,5-dimethylphenyl)-2-[(4S)-2,2,4-trimethylpyrrolidin-1-yl]pyridine-3-carboxamide]
18 | +++ (“+++” means <3 uM) | CC(C)Oc1ccc(-c2ccc(C(=O)NS(=O)(=O)c3ccc[nH]c3=O)c(N3C[C@@H](C)CC3(C)C)n2)cc1 [Compound 1774, 6-(4-isopropoxyphenyl)-N-[(2-oxo-1H-pyridin-3-yl)sulfonyl]-2-[(4S)-2,2,4-trimethylpyrrolidin-1-yl]pyridine-3-carboxamide]
19 | +++ (“+++” means <3 uM) | CC1CN(c2ncccc2C(=O)NS(=O)(=O)c2cccc(Nc3ccc4ncsc4c3)n2)C(C)(C)C1 (stereo not shown) [Compound 1775, N—[[6-(1,3-benzothiazol-6-ylamino)-2-pyridyl]sulfonyl]-2-(2,24-trimethylpyrrolidin-1-yl)pyridine-3-carboxamide]
20 | +++ (“+++” means <3 uM) | CC1CN(c2ncccc2C(=O)NS(=O)(=O)c2cccc(OCc3cc(-c4ccccc4)on3)n2)C(C)(C)C1 (stereo not shown) [Compound 1777, N—[[6-[(5-phenylisoxazol-3-yl)methoxy]-2-pyridyl]sulfonyl]-2-(2,2,4-trimethylpyrrolidin-1-yl)pyridine-3-carboxamide]
21 | +++ (“+++” means <3 uM) | COc1ccc(COc2cccc(S(=O)(=O)NC(=O)c3cccnc3N3CC(C)CC3(C)C)n2)cc1Cl (stereo not shown) [Compound 1778, N—[[6-[(3-chloro-4-methoxy-phenyl)methoxy]-2-pyridyl]sulfonyl]-2-(2,2,4-trimethylpyrrolidin-1-yl)pyridine-3-carboxamide]
22 | +++ (“+++” means <3 uM) | COc1c(F)cccc1-c1ccc(C(=O)NS(=O)(=O)c2ccc[nH]c2=O)c(N2C[C@@H](C)CC2(C)C)n1 [Compound 1779, 6-(3-fluoro-2-methoxy-phenyl)-N-[(2-oxo-1H-pyridin-3-yl)sulfonyl]-2-[(4S)-2,2,4-trimethylpyrrolidin-1-yl]pyridine-3-carboxamide]
23 | ++ (“++” means between 3 uM and 10 uM) | COc1cc(-c2ccc(C(=O)NS(=O)(=O)c3ccc[nH]c3=O)c(N3C[C@@H](C)CC3(C)C)n2)ccc1F [Compound 1780, 6-(4-fluoro-3-methoxy-phenyl)-N-[(2-oxo-1H-pyridin-3-yl)sulfonyl]-2-[(4S)-2,2,4-trimethylpyrrolidin-1-yl]pyridine-3-carboxamide]
24 | +++ (“+++” means <3 uM) | C#Cc1cccc(Oc2cccc(S(=O)(=O)NC(=O)c3cccnc3N3CC(C)CC3(C)C)n2)c1 (stereo not shown) [Compound 1782, N—[[6-(3-ethynylphenoxy)-2-pyridyl]sulfonyl]-2-(2,2,4-trimethylpyrrolidin-1-yl)pyridine-3-carboxamide]
25 | +++ (“+++” means <3 uM) | C[C@@H]1CN(c2nc(-c3ccccc3Cl)ccc2C(=O)NS(=O)(=O)c2ccc[nH]c2=O)C(C)(C)C1 [Compound 1784, 6-(2-chlorophenyl)-N-[(2-oxo-1H-pyridin-3-yl)sulfonyl]-2-[(4S)-2,2,4-trimethylpyrrolidin-1-yl]pyridine-3-carboxamide]
26 | +++ (“+++” means <3 uM) | C[C@@H]1CN(c2nc(-c3ccc(OC(F)(F)F)cc3)ccc2C(=O)NS(=O)(=O)c2cccc(N)n2)C(C)(C)C1 [Compound 1785, N-[(6-amino-2-pyridyl)sulfonyl]-6-[4-(trifluoromethoxy)phenyl]-2-[(4S)-2,2,4-trimethylpyrrolidin-1-yl]pyridine-3-carboxamide]
27 | ++ (“++” means between 3 uM and 10 uM) | COc1cccc(-c2ccc(C(=O)NS(=O)(=O)c3ccc[nH]c3=O)c(N3C[C@@H](C)CC3(C)C)n2)c1OC [Compound 1786, 6-(2,3-dimethoxyphenyl)-N-[(2-oxo-1H-pyridin-3-yl)sulfonyl]-2-[(4S)-2,2,4-trimethylpyrrolidin-1-yl]pyridine-3-carboxamide]
28 | +++ (“+++” means <3 uM) | C[C@@H]1CN(c2nc(-c3ccccc3F)ccc2C(=O)NS(=O)(=O)c2cccnc2N)C(C)(C)C1 [Compound 1790, N-[(2-amino-3-pyridyl)sulfonyl]-6-(2-fluorophenyl)-2-[(4S)-2,2,4-trimethylpyrrolidin-1-yl]pyridine-3-carboxamide]

Reference: patent US10758534B2 (Vertex Pharmaceuticals Incorporated, priority 2014, dated 2020)
